Activity calls are given as the source filed them.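 Rule for the calls: active = IC50 at or below 10 µM; inactive = IC50 above 10 µM.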

The experiment relates to HEK293 Gal4-VP16 luciferase reporter counterscreen. Nature of the experiment: VP16-driven transactivation reporter suppression potency – cell-based, luminescence, HEK293, powder samples, round 000, counter-screen for COUP-TFII inhibitor project, late-stage follow-up (AID 743283).
In the case of `CN(CC1CCCO1)S(=O)(=O)c1ccc(C(=O)Nc2nc3cc4c(cc3s2)OCO4)cc1` (centres undefined), the IC50 is > 42.7 µM (inactive).

For `CC1Cc2cc(-c3csc(NC(=O)Cc4cccs4)n3)ccc2N1S(C)(=O)=O` (centres undefined), the IC50 was 11.5 µM (inactive).

As for `CCOc1cc(S(=O)(=O)NCc2ccncc2)ccc1Cl`, the IC50 was > 85.4 µM (inactive).

As to `Cc1nn(C)c(C)c1CN(C)S(=O)(=O)c1ccc2ccccc2c1`, the IC50 was > 85.4 µM (inactive).

As to `Cc1cc(C)c(S(=O)(=O)NCc2ccncc2)c(C)c1`, the IC50 was > 85.4 µM (inactive).

`COc1ccc(CN(C)c2ccc(S(=O)(=O)N3CCN(C)CC3)cc2[N+](=O)[O-])cc1OC`: the IC50 was > 85.4 µM (inactive).

Turning to `COc1ccc(CCNc2ncnc3sc(C)cc23)cc1OC`, the IC50 is 30.2 µM (inactive).

As to `Cc1sc2ncnc(NCC3COc4ccccc4O3)c2c1C` (centres undefined), the IC50 was > 85.4 µM (inactive).

`CCOC(=O)C1CCCN(S(=O)(=O)c2ccc(S(=O)(=O)N(CC)CC)cc2)C1` (centres undefined): the IC50 was > 85.4 µM (inactive).

For `CCOC(=O)N1CCN(C(=O)CSCC(=O)Nc2nc(-c3ccc(-c4ccccc4)cc3)cs2)CC1`, the IC50 is 33.9 µM (inactive).

Turning to `COc1ccc(OC)c(CCNC(=O)Cn2nc(C)c3c(C)n(-c4ccc(C)cc4)nc3c2=O)c1`, the IC50 is > 28.5 µM (inactive).

In the case of `CCC1CCCCN1C(=O)c1cc(COc2ccc3ncccc3c2)on1` (centres undefined), the IC50 was > 85.4 µM (inactive).

Turning to `CC(=O)Nc1ccccc1OCC(=O)c1cc(C)n(Cc2cccs2)c1C`, the IC50 was 8.67 µM.

As to `COc1ccc(CCNc2ncnc3sccc23)cc1OC`, the IC50 is > 85.4 µM (inactive).

On to `O=C(Nc1ccncc1)c1ccc(Cl)c(S(=O)(=O)N2CCc3ccccc32)c1`, for which the IC50 is 37 µM (inactive).

As to `CC(Nc1ncnc2ccccc12)c1ccccc1` (centres undefined), the IC50 was > 85.4 µM (inactive).

Regarding `COc1ccc(NS(=O)(=O)c2cccc(NC(=O)c3ccc(Cl)nc3)c2)cc1`, the IC50 was > 28.5 µM (inactive).

For the compound `COc1ccc(C2=Nn3c([n+](C)c4ccccc43)SC2)cc1`, the IC50 was > 85.4 µM (inactive).

Regarding `Cc1cc(-n2nc3ccccc3n2)c2oc(SCC(=O)NC(C)(C)C)nc2c1`, the IC50 was 79.3 µM (inactive).

`COc1ccc(NS(=O)(=O)c2ccc(-c3coc(C)n3)cc2)cc1OC`: the IC50 is > 85.4 µM (inactive).

In the case of `CCN(CC)S(=O)(=O)c1cccc(NC(=O)CNc2cccc(S(=O)(=O)N3CCCC3)c2)c1`, the IC50 is > 85.4 µM (inactive).

For `Cc1sc2ncnc(NCCc3ccc(S(N)(=O)=O)cc3)c2c1C`, the IC50 was > 85.4 µM (inactive).

Consider `Cc1oc(-c2ccc(Cl)cc2)nc1CS(=O)CC(=O)NCCCN1CCN(Cc2ccccc2)CC1` (centres undefined), for which the IC50 is > 28.5 µM (inactive).

As for `Clc1ccc(OCCN2CCN(c3ncnc4sccc34)CC2)cc1`, the IC50 is > 85.4 µM (inactive).

In the case of `O=S(=O)(NCC1CCCO1)c1ccc(-c2ccc(S(=O)(=O)NCC3CCCO3)cc2)cc1` (centres undefined), the IC50 was > 85.4 µM (inactive).

Turning to `Cc1ccc(S(=O)(=O)CC2CSc3nc4ccccc4n32)cc1` (centres undefined), the IC50 was > 85.4 µM (inactive).

As to `Cc1cc(-n2c(C)cc(C(=O)CSc3ncnc4ccccc34)c2C)no1`, the IC50 was > 85.4 µM (inactive).

Consider `Cc1ccc(OCCN2CCN(c3ncnc4sc(C)c(C)c34)CC2)cc1`, for which the IC50 is > 85.4 µM (inactive).

For `Cn1nccc1C(=O)NC1CCCc2c1cnn2-c1ccc(C(C)(C)C)cc1` (centres undefined), the IC50 was > 85.4 µM (inactive).

Values taken from PubChem BioAssay AID743283 (The Scripps Research Institute Molecular Screening Center, 2014).
